Data on three compounds can be found in patent US8778966B2, “Quinolinone derivatives as PARP and tank inhibitors” (Janssen Pharmaceutica, NV, priority 2007, dated 2014).

For one test, the system named is PC3 cells. As to the kind of experiment: EB1 Comet (microtubule disruption) assay. The format is cell-based, human. The following applies: 1 hour treatment. As to the method: The Eb1 Comet assay relies on the detection of the Eb1 protein at the plus end of polymerizing microtubules (Mimori-Kiyosue, 2000) using indirect immunofluorescence. Disruption of microtubule dynamics through de-polymerization or stabilization results in a de-localization of Eb1 from the growing microtubule ends and this is visualized by the disappearance of Eb1 containing cytoplasmic foci.
Briefly, human prostate cancer PC3 cells obtained from the American Type Culture Collection were grown in 96-well plates (Greiner, cat. no. 655090) in HAM's F12 medium as recommended by the provider (ATCC). The cells were treated for 1 hour at 37° C. with compounds dissolved in DMSO (0.6% final DMSO concentration). The culture medium was then removed by aspiration and the cells were fixed by adding cold methanol (−20 C). After a 15 min. incubation at −20 C, the cells were washed twice with DPBS (Gibco) containing 0.5% Triton X-100. Mouse Eb1 antibody (BD Transduction Laboratories, cat. no. 610534) was added to the cells (1/250 dilution in DPBS containing 1% BSA) and incubated overnight at room temperature. The antibody was subsequently removed and the cells washed twice with DPBS, 0.5% Triton X-100. Secondary goat anti-mouse antibody conjugated to Alexa 488 fluorescent dye (Molecular Probes) was added at a 1/500 dilution in DPBS, 1% BSA and incubated for 1 hour at 37 C. The cells were washed twice with DPBS, 0.5% Triton X-100 and then DPBS containing 0.5% Triton X-100 and 1/5000 Hoechst 33342 (Molecular Probes) was added. Microscopy based Eb1 foci visualization was carried out using an IN Cell Analyser 1000 (Amersham Biosciences) using a 20× objective. Compound dependent microtubule disruption was visually determined by the disappearance in Eb1 foci. The lowest active concentration (LAC) was determined as the concentration where Eb1 foci were absent in at least 50% of the treated cells.

Another test concerns the target T1, Human PARP-1 enzyme (Homo sapiens, UniProt P09874).
T1 construct: purchased Trevigen
Briefly: In vitro Scintillation Proximity Assay (SPA) for PARP-1 inhibitory activity. In kind it is biochemical. The following applies: read-out: in vitro SPA assay PARP-1 pIC50 (converted). As to the method: Compounds of the present invention were tested in an in vitro assay based on SPA technology (proprietary to GE healthcare).
In principle, the assay relies upon the well established SPA technology for the detection of poly(ADP-ribosyl)ation of biotinylated target proteins, i.e histones. This ribosylation is induced using nicked DNA activated PARP-1 enzyme and [^3H]-nicotinamide adenine dinucleotide ([^3H]-NAD^+) as ADP-ribosyl donor.
Histones (type II-A, supplier: Sigma) were biotinylated using the biotinylation kit of Amersham and stored aliquoted at −20° C. A stock solution of 100 mg/ml SPA poly(vinyl toluene) (PVT) beads (supplier: Amersham) was made in PBS. A stock solution of 61.6 nM [^3H]-NAD^+ was made by adding [^3H]-NAD^+ (0.1 mCi/ml, supplier: Perkin Elmer) to incubation buffer (50 mM Tris/HCl, pH 8; 0.2 mM DTT; 4 mM MgCl2). A solution of 4 mM NAD^+ (supplier: Sigma) was made. Human PARP-1 enzyme was obtained from Trevigen. Biotinylated histones and PVT-SPA beads were mixed and pre-incubated for 30 min. at room temperature. PARP-1 enzyme (concentration was lot dependent) was mixed with the nicked DNA and the mixture was pre-incubated for 30 min. at 4° C. Equal parts of this histones/PVT-SPA beads solution and PARP-1 enzyme/DNA solution were mixed and 75 μl of this mixture together with 1 μl of compound in DMSO and 25 μl of [^3H]-NAD^+ was added per well into a 96-well microtiterplate. The final concentrations in the incubation mixture were 2 μg/ml for the biotinylated histones, 2 mg/ml for the PVT-SPA beads, 0.25 μg/ml for the nicked DNA and between 0.1-0.2 μg/ml for the PARP-1 enzyme. After incubation of the mixture for 20 min. at room temperature, the reaction was terminated by adding 100 μl of 4 mM NAD^+ in water (final concentration 2 mM) and plates were mixed. The beads were sedimented by centrifugation (10 min, 800 rpm). and plates transferred to a TopCountNXT™ (Packard) for scintillation counting, values were expressed as counts per minute (cpm). For each experiment, controls (containing PARP-1 enzyme and DMSO without compound), a blank incubation (containing DMSO but no PARP-1 enzyme, no DNA or compound) and samples (containing PARP-1 enzyme, DNA and compound dissolved in DMSO) were run in parallel. All compounds tested were dissolved and eventually further diluted in DMSO. A dose-response curve was made wherein the compounds were tested at concentrations between 10^−5M and 3×10^−9M. In each test, the blank value was subtracted from both the control and the sample values. The control sample represented maximal PARP-1 enzyme activity. For each sample, the amount of cpm was expressed as a percentage of the mean cpm value of the controls. When appropriate, IC50-values (concentration of the drug, needed to reduce the PARP-1 enzyme activity to 50% of the control) were computed using linear interpolation between the experimental points just above and below the 50% level. Herein the effects of test compounds are expressed as pIC50 (the negative log value of the IC50-value). As a reference compound, 4-amino-1,8-naphthalimide was included to validate the SPA assay.

The test system of the next test is HCT116 cells. Briefly: Antiproliferative activity, Alamar Blue assay, HCT116 cells. Details: key to HCT116 antiproliferative activity pIC50: pIC50 = -log IC50 (IC50: conc. reducing growth to 50% of control). The format is cell-based, human. The procedure: Human colon carcinoma HCT116 cells obtained from the ATCC were cultured in McCoy's 5 A medium supplemented with 2 mM L-Glutamine, 50 μg/ml gentamicin and 10% heat inactivated fetal calf serum.
(§1) Resazurin was purchased from Aldrich (Prod. No. 199303). Potassium ferrocyanide, potassium ferricyanide, KH2PO4 and K2HPO4 were purchased from Sigma (Prod. Nos. P9387, P8131, P5655 and P8281, respectively).
(§2) Potassium Phosphate Buffer 0.1 M (PPB) was made as follows: 2.72 gram KH2PO4 and 13.86 gram K2HPO4 were dissolved in 500 ml milli-Q H2O, the pH was adjusted to pH 7.4 and the volume was brought to 1 litre with milli-Q H2O; the buffer was filter sterilised and stored at room temperature. Resazurin stock solution (PPB-A) was prepared fresh by dissolving 45 mg resazurin in 15 ml PBS. 30 mM potassium ferricyanide (PPB-B) was prepared by dissolving 0.987 gram potassium ferricyanide in 100 ml PPB. 30 mM potassium ferrocyanide (PPB-C) was prepared by dissolving 1.266 gram potassium ferrocyanide in 100 ml PPB.
(§3) Mixture of PPB-A, PPB-B and PPB-C was prepared by mixing equal volumes of the respective solutions. Resazurin work solution (herein termed “Alamar Blue” solution) was prepared by diluting said mixture 20×(vol/vol) in PPB and filter sterilising; the Alamar Blue solution could be kept at 4° C. for a maximum of 2 weeks.
(§4) For experiments in 384 wells plates the cells were seeded at a density of 4.5×10^3 cells/ml in Falcon 384-well culture plates (Life Technologies, Merelbeke, Belgium), black with clear bottom, in 45 μl culture medium. Cells were allowed to adhere to plastic for 24 hr. The tested compound was pre-diluted (1/50 in culture medium) and 5 μl pre-diluted compound was added to the wells. Following 4-day incubation, 10 μl of the Alamar Blue solution was added to each well and the cells were further incubated for 4 hrs (HCT116) or 24 hrs (PC-3) at 37° C. The fluorescence intensity was measured for each well on a Fluorescence plate reader (Fluorskan, Labsystems, 540 nm excitation and 590 nm emission)
(§5) The antiproliferative activity was calculated as percentage of remaining viable cells in treated versus control (untreated cells) conditions. Within an experiment, the result for each experimental condition is the mean of 3 replicate wells. When appropriate, the experiments were repeated to establish full concentration-response curves. When appropriate, IC50-values (concentration of the drug, needed to reduce cell growth to 50% of the control) were computed using probit analysis for graded data (Finney, D. J., Probit Analyses, 2nd Ed. Chapter 10, Graded Responses, Cambridge University Press, Cambridge 1962). Herein the effects of test compounds are expressed as pIC50 (the negative log value of the IC50-value) (see Table 2).
For orientation: The colour change of resazurin is a common sign of viable cells or microbes.

A further test relates to PC-3 cells. As to the kind of experiment: Antiproliferative activity, Alamar Blue assay, PC-3 cells. In kind it is cell-based, human. As to the method:
Human prostate cancer PC-3 cells obtained from the ATCC were cultured in HAM′S F12 medium supplemented with 1 mM Sodium Pyruvate, 1.5 g/L Sodium Bicarbonate, 50 μg/ml gentamicin, non-essential amino acids and 10% fetal calf serum.
as §1, §2, §3, §4, §5

Another test deals with T2, TANK-2 enzyme (Homo sapiens, UniProt Q9H2K2).
T2 construct: made in house
T2 sequence (Q9H2K2 1-1166): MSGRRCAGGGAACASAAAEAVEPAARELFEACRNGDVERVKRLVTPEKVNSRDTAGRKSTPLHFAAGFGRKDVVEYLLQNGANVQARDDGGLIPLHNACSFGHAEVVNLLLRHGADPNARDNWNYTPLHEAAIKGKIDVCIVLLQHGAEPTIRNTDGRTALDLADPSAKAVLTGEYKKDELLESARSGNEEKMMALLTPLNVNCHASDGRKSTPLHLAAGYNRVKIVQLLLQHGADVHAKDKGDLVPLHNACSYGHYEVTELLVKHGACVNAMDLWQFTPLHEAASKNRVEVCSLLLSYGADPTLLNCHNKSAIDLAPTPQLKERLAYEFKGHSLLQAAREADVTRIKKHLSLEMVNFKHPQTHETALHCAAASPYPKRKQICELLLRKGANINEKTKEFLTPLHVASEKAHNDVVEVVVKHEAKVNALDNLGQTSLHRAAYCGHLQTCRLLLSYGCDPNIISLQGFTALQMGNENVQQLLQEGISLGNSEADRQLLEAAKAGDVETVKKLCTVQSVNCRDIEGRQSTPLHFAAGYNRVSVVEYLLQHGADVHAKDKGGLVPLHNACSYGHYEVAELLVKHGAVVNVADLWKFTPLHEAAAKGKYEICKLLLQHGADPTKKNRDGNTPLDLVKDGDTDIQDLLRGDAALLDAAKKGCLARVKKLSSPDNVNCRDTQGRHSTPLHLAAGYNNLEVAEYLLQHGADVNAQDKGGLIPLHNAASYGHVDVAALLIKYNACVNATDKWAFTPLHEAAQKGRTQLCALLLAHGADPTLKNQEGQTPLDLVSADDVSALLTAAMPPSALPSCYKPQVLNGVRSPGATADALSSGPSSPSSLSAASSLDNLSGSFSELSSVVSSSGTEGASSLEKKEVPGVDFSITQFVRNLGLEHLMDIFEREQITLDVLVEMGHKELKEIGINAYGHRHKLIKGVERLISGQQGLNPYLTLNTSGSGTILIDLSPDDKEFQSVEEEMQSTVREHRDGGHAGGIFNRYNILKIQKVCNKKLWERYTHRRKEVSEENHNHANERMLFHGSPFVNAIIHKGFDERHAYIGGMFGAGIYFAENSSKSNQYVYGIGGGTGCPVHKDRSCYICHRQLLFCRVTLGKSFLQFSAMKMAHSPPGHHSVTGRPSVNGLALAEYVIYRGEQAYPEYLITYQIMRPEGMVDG
Briefly: In vitro Scintillation Proximity Assay (SPA) for TANK-2 inhibitory activity. The following applies: read-out: in vitro SPA assay TANK-2 pIC50 (converted). In kind it is biochemical. The procedure: Compounds of the present invention were tested in an in vitro assay based on SPA technology with Ni Flash plates (96 or 384 well). In principle, the assay relies upon SPA technology for the detection of auto-poly(ADP-ribosyl)ation of TANK-2 protein using [^3H]-nicotinamide adenine dinucleotide ([^3H]-NAD^+) as ADP-ribosyl donor.
A stock solution of 100 nM [3H]-NAD^+/NAD (0.1 mCi/ml, supplier: Perkin Elmer) and 0.25 μM NAD (Sigma) was made in assay buffer (60 mM Tris/HCl, pH 7.4; 0.9 mM DTT; 6 mM MgCl2). The TANK-2 enzyme was produced as described in EP1238063. 60 μl of assay buffer, together with 1 μl of compound in DMSO, 20 μl of [^3H]-NAD^+/NAD and 20 μl of TANK-2 enzyme (final concentration 8 μg/ml) was added per well into a 96-well Ni-coated flash plate (Perkin Elmer). After incubation of the mixture for 120 min. at room temperature, the reaction was terminated by adding 60 μl of stopsolution (42.6 mg NAD in 6 ml H2O). The plates were covered with a plate sealer and placed in a TopCountNXT™ (Packard) for scintillation counting. Values were expressed as counts per minute (cpm). For each experiment, controls (containing TANK-2 enzyme and DMSO without compound), a blank incubation (containing DMSO but no TANK-2 enzyme or compound) and samples (containing TANK-2 enzyme and compound dissolved in DMSO) were run in parallel. All compounds tested were dissolved and eventually further diluted in DMSO. In first instance, compounds were tested at a concentration of 10^−5M. […] In each test, the blank value was subtracted from both the control and the sample values. The control sample represented maximal TANK-2 enzyme activity. For each sample, the amount of cpm was expressed as a percentage of the mean cpm value of the controls. When appropriate, IC50-values (concentration of the drug, needed to reduce the TANK-2 enzyme activity to 50% of the control) were computed using linear interpolation between the experimental points just above and below the 50% level. Herein the effects of test compounds are expressed as pIC50 (the negative log value of the IC50-value). As reference compounds, 3-aminobenzamide and 4-amino-1,8-naphtalimide were included to validate the SPA assay. Herein the assay was described using 96-well plates. In the assay using 384-well plates the same final concentrations were used and volumes were adapted.
For orientation: SPA uses beads or plates that emit light when radiolabelled molecules are held near them.

T1 sequence (P09874 whole entry): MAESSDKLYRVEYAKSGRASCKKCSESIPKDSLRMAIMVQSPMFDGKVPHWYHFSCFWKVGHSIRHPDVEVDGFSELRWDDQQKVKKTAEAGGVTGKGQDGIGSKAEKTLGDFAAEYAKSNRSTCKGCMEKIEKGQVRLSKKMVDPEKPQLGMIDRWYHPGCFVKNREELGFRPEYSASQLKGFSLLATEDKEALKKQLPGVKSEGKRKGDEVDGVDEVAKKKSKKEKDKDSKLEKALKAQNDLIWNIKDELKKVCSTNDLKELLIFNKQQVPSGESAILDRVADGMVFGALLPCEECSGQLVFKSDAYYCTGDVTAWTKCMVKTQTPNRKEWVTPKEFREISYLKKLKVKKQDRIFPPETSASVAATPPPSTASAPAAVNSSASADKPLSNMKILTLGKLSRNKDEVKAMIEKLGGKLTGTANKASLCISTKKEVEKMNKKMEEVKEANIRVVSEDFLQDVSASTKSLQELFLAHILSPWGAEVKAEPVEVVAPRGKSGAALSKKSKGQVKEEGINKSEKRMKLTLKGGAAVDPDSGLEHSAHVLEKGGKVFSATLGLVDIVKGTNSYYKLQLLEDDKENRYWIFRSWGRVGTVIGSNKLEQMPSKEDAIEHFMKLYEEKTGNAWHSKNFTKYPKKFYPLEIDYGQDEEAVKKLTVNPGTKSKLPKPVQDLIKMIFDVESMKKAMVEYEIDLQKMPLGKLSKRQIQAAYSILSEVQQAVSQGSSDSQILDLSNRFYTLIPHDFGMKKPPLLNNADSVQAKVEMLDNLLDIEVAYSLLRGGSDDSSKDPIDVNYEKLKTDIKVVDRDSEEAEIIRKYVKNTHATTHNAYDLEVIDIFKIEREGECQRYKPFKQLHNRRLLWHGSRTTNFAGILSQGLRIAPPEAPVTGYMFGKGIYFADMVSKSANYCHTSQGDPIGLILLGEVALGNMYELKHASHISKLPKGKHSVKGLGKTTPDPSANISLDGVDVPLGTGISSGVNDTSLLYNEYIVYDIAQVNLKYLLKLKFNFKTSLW

On to `Cc1cc2ccc(C(C)(C#N)C3CCc4cc(Br)ccc43)cc2[nH]c1=O` (stereo not drawn) [Compound 243], for which, in the test with PC3 cells, the “EB1 pLAC” value was found to be 6. Also, at Human PARP-1 enzyme, the IC50 was 316 nM. The “HCT116 antiproliferative activity pIC50” value in the test with HCT116 cells (HCT116 cells) is listed as 5.4. Also, in the test with PC-3 cells (PC3 cells), the “PC3 antiproliferative activity pIC50” value is given as 5.2.

`Cc1cc2ccc([C@@](C)(C#N)[C@@H]3CCc4ccc(Br)cc43)cc2[nH]c1=O` [Compound 408]: the IC50 was 251 nM at Human PARP-1 enzyme; 5010 nM in the test on HCT116 cells (Homo sapiens, HCT-116, HCT116 cells, read-out: HCT116 antiproliferative activity pIC50 (converted)); 10000 nM in the test with PC-3 cells (Homo sapiens, PC-3, PC3 cells, read-out: PC3 antiproliferative activity pIC50 (converted)).

On to `Cc1cc2ccc([C@@](C)(C#N)[C@H]3CCCc4ccccc43)cc2[nH]c1=O` [Compound 384], for which the IC50 at Human PARP-1 enzyme is 50.1 nM; on TANK-2 enzyme, 1000 nM.
